SMILES strings stand for the structures. Where only a bound is given, the exact number is not on record here.

The experiment deals with T1, human mGlu2 receptor (Homo sapiens, UniProt Q14416).
T1 construct: expressed in transfected cells; host or cells: HEK293
Nature of the experiment: FLIPR intracellular Ca2+ assay, potentiation of glutamate response in HEK293 clone expressing mGlu2 receptor, rGLAST and Galpha16. The settings on record: 1 μM glutamate added ten minutes after test compound, HEK293 cells with human mGlu2, rGLAST, Galpha16, read-out: EC50 values of potentiation effect to glutamate. The experiment is classed as cell-based. From the text: The compounds of the present invention can be tested e.g. by evaluating intracellular Ca^2+ concentrations in cells permanently expressing human mGlu receptor, the rat glutamate transporter rGLAST and the Galpha16 subunit of the G-protein complex under standard conditions in a fluorometric imaging plate reader (FLIPR, Molecular Devices, Union City, Calif. 94587, USA) by measuring the response of the cells to a test compound in the absence of presence of glutamate. The FLIPR assay is a common functional assay to monitor native or recombinant Galphaq-coupled receptors, and native or recombinant receptors normally linked to other G-protein signalling cascades, which are coupled to calcium through co-expression of an alpha subunit of a promiscuous or chimeric G-protein. In the assay the increase of intracellular calcium is measured through a calcium-dependent fluorescent dye (e.g. Fluo-4 AM) in the FLIPR instrument.
For the purpose of the present study, a cell line permanently expressing a human mGlu receptor, such as the mGlu2 receptor, the rat glutamate transporter rGLAST and the GalphaG16 may be generated by transfection as described in the examples. For selection of a suitable cell clone and also the subsequent measurements, the selected clone the cells will be plated on suitable multiwell plates in a suitable medium (e.g. DMEM Glutamax (GIBCO #21885-025)/10% dialyzed FCS). Cells may be selected by gentamycin treatment as described in the examples. Cells will then be loaded with a suitable Ca^2+ sensitive fluorescence dye, e.g. with 2 μM Fluo-4 AM (Molecular Probes, F14201). Cells will then be washed with a suitable buffer (e.g. HEPES) and the thus treated plates will be measured in a fluorometric imaging plate reader (e.g. FLIPR, Molecular Devices, Union City, Calif. 94587, USA).
The compounds of the present invention were tested in the above-described FLIPR assay using the selected cell clone. Increased intracellular calcium levels were quantified following addition of test compound (agonism), as well as following addition of a submaximal concentration of glutamate (potentiation).
For the determination of the effect of the test compound by itself (agonism) or by increasing the response to a submaximal concentration (e.g. 1 μM) of glutamate (potentiation), the resulting signal is determined by subtraction of the background fluorescence from the maximal fluorescent peak height of the respective response. In the FLIPR instrument the compound is given to the cell and its fluorescence response quantified by the FLIPR instrument (agonism). The concentration at which the compound exerts half its maximal effect is named the ‘effective concentration 50’ or ‘EC50’. The maximal effect induced by the test substance is normalized to the maximal effect exerted by 100 μM glutamate (set at 100%).
After addition of the test compound to the plate, a submaximal concentration of glutamate (e.g. 1 μM glutamate) will be added. A potentiator enhances the response of the receptor to glutamate. The response to glutamate in the presence of test compound is quantified. The concentration at which the test compound is able to exert half its maximal potentiation effect to glutamate is named the ‘EC50’. The maximal response to the submaximal concentration of glutamate (e.g. 1 micromolar glutamate) in the presence of test compound is normalized to the maximal effect exerted by 100 micromolar glutamate (set at 100%). Least squares curve fitting with a four-parameter equation is then applied to the resulting dose-response curve to determine the resulting EC5O values (Graph Pad Prism).
For the purpose of the present study, a cell line permanently expressing the human mGlu2 receptor, the rat glutamate transporter rGLAST and the alpha subunit of G16 was generated by transfection. […]

T1 sequence (Q14416 19-872): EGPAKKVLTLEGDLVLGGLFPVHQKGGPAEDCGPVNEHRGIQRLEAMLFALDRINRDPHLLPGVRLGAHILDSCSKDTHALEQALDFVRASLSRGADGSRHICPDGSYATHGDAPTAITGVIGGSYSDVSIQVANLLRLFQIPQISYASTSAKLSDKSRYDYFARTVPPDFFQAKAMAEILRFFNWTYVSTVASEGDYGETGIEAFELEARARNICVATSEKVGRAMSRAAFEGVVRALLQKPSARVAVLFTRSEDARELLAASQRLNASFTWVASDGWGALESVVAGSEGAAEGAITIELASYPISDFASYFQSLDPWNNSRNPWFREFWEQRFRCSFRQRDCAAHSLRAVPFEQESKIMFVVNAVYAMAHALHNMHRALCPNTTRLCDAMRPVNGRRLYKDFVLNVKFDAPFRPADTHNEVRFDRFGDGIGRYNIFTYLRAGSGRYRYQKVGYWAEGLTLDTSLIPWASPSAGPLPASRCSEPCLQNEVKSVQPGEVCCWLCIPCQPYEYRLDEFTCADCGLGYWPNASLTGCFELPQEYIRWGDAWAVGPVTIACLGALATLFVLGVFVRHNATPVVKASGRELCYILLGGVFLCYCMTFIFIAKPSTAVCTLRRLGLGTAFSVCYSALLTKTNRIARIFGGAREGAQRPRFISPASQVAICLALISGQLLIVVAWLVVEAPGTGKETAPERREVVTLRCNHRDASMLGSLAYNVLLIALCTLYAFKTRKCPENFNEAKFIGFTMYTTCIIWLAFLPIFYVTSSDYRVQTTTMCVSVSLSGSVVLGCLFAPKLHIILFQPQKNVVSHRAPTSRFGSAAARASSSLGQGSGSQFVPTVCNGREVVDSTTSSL

On to `O=C1c2ccc(OCc3c[nH]nc3-c3ccc(C(F)(F)F)cc3)cc2CN1CC(F)(F)F` [Example 568, 2-(2,2,2-Trifluoro-ethyl)-5-[3-(4-trifluoromethyl-phenyl)-1H-pyrazol-4-ylmethoxy]-2,3-dihydro-isoindol-1-one], for which the concentration giving a half-maximal response (EC50) (usually the midpoint of the concentration-response curve) was less than 1 µM.
Consider `CCCN1CCc2cc(OCc3c[nH]nc3-c3ccc(C(F)(F)F)cc3)ccc2C1=O` [Example 574, 2-Propyl-6-[3-(4-trifluoromethyl-phenyl)-1H-pyrazol-4-ylmethoxy]-3,4-dihydro-2H-isoquinolin-1-one], for which the EC50 is less than 1 µM.
The same measure for `CCCC(=O)c1ccc(NCc2c[nH]nc2-c2cccc(Cl)c2)cc1` [Example 509, 1-(4-{[3-(3-Chloro-phenyl)-1H-pyrazol-4-ylmethyl]-amino}-phenyl)-butan-1-one]: less than 1 µM; for `CCCC(=O)c1ccc(NCc2sc(Cl)nc2Cl)cc1` [Example 250, 1-{4-[(2,4-Dichloro-thiazol-5-ylmethyl)-amino]-phenyl}-butan-1-one]: 1 to 10 µM; for `CCCC(=O)c1ccc(NCc2c[nH]nc2-c2ccc(C)cc2)cc1` [Example 212, 1-{4-[(3-p-Tolyl-1H-pyrazol-4-ylmethyl)-amino]-phenyl}-butan-1-one]: less than 1 µM.
The same measure for `CCCCN1Cc2cc(OCc3c[nH]nc3-c3ccc(Cl)c(Cl)c3)ccc2C1=O` [Example 547, 2-Butyl-5-[3-(3,4-dichloro-phenyl)-1H-pyrazol-4-ylmethoxy]-2,3-dihydro-isoindol-1-one]: less than 1 µM; for `O=C1c2ccc(OCc3c[nH]nc3-c3ccc(F)cc3)cc2CN1CC(F)(F)F` [Example 570, 5-[3-(4-Fluorophenyl)-1H-pyrazol-4-ylmethoxy]-2-(2,2,2-trifluoro-ethyl)-2,3-dihydro-isoindol-1-one]: less than 1 µM.
For `CCCC(=O)c1ccc(NCc2c(C)n[nH]c2C)cc1` [Example 224, 1-{4-[(3,5-Dimethyl-1H-pyrazol-4-ylmethyl)-amino]-phenyl}-butan-1-one] the value was 1 to 10 µM; for `CCCC(=O)c1ccc(NCc2cnc(-c3cccc(OC)c3)s2)cc1` [Example 243, 1-(4-{[2-(3-Methoxy-phenyl)-thiazol-5-ylmethyl]-amino}-phenyl)-butan-1-one], 1 to 10 µM.
For `CCCC(=O)c1ccc(NCc2c[nH]nc2C)cc1` [Example 475, 1-{4-[(3-Methyl-1H-pyrazol-4-ylmethyl)-amino]-phenyl}-butan-1-one], the EC50 fell in the range of 1 to 10 µM.
For `CCCC(=O)c1ccc(NCc2c(C)nn(C(C)(C)C)c2C)cc1` [Example 58, 1-{4-[(1-tert-Butyl-3,5-dimethyl-1H-pyrazol-4-ylmethyl)amino]phenyl)butan-1-one] the value was 1 to 10 µM; for `CCCN1Cc2cc(NCc3c[nH]nc3-c3cccc(Cl)c3)ccc2C1=O` [Example 577, 5-{[3-(3-Chloro-phenyl)-1H-pyrazol-4-ylmethyl]-amino}-2-propyl-2,3-dihydro-isoindol-1-one], less than 1 µM; for `CCCN1Cc2cc(NCc3c[nH]nc3-c3ccc(F)cc3)ccc2C1=O` [Example 579, 5-{[3-(4-Fluorophenyl)-1H-pyrazol-4-ylmethyl]-amino}-2-propyl-2,3-dihydro-isoindol-1-one], less than 1 µM.
The same measure for `CCCC(=O)c1ccc(NCc2cnc(-c3ccccc3OC)s2)cc1` [Example 242, 1-(4-{[2-(2-Methoxy-phenyl)-thiazol-5-ylmethyl]-amino}-phenyl)-butan-1-one]: 1 to 10 µM; for `CCCC(=O)c1ccc(NCc2n[nH]cc2-c2ccc(C(F)(F)F)cc2)cc1` [Example 517, 1-(4-{[4-(4-Trifluoromethyl-phenyl)-1H-pyrazol-3-ylmethyl]-amino}-phenyl)-butan-1-one]: less than 1 µM.
As to `O=C1CCc2cc(NCc3c[nH]nc3-c3ccc(C(F)(F)F)cc3)ccc21` [Example 81, 5-{[3-(4-Trifluoromethylphenyl)-1H-pyrazol-4-ylmethyl]-amino}-indan-1-one], the EC50 was in the range of 1 to 10 µM.
Consider `CCCN1Cc2cc(NCc3c[nH]nc3-c3cccc(F)c3)ccc2C1=O` [Example 580, 5-{[3-(3-Fluorophenyl)-1H-pyrazol-4-ylmethyl]-amino}-2-propyl-2,3-dihydro-isoindol-1-one], for which the EC50 is less than 1 µM.
The same measure for `CCCC(=O)c1ccc(NCc2cnc(-c3ccccc3)s2)cc1` [Example 246, 1-{4-[(2-Phenyl-thiazol-5-ylmethyl)-amino]-phenyl}-butan-1-one]: 1 to 10 µM.
Consider `CCCC(C)Oc1cccc(NCc2c[nH]nc2-c2ccc(C(F)(F)F)cc2)c1` (centres unmarked) [Example 379, [3-(1-Methyl-butoxy)-phenyl]-[3-(4-trifluoromethyl-phenyl)-1H-pyrazol-4-ylmethyl]-amine], for which the EC50 fell in the range of 1 to 10 µM.
The same measure for `CCCN1Cc2cc(OCc3c[nH]nc3-c3ccc(F)cc3)ccc2C1=O` [Example 533, 5-[3-(4-Fluorophenyl)-1H-pyrazol-4-ylmethoxy]-2-propyl-2,3-dihydro-isoindol-1-one]: less than 1 µM; for `O=C1c2ccc(OCc3c[nH]nc3-c3ccc(F)cc3)cc2CN1CCC(F)(F)F` [Example 540, 5-[3-(4-Fluorophenyl)-1H-pyrazol-4-ylmethoxy]-2-(3,3,3-trifluoro-propyl)-2,3-dihydro-isoindol-1-one]: less than 1 µM; for `CCCC(=O)c1ccc(NCc2cccnc2OC(C)C)cc1` [Example 310, 1-{4-[(2-Isopropoxy-pyridin-3-ylmethyl)-amino]-phenyl}-butan-1-one]: 1 to 10 µM.
For `CCCC(=O)c1ccc(NCc2cccnc2-c2ccccc2)cc1` [Example 526, 1-{4-[(2-Phenyl-pyridin-3-ylmethyl)-amino]-phenyl}-butan-1-one] the value was 1 to 10 µM.
For `CCCC(=O)c1ccc(NCc2cnn(C(C)C)c2)cc1` [Example 75, 1-{4-[(1-Isopropyl-1H-pyrazol-4-ylmethyl)amino]phenyl}butan-1-one] the value was 1 to 10 µM; for `CCC(C)COc1cccc(N(Cc2c[nH]nc2-c2ccc(C(F)(F)F)cc2)S(=O)(=O)CC(F)(F)F)c1` (centres unmarked) [Example 457, 2,2,2-Trifluoro-ethanesulfonic acid [3-(2-methyl-butoxy)-phenyl]-[3-(4-trifluoromethyl-phenyl)-1H-pyrazol-4-ylmethyl]-amide], 1 to 10 µM; for `O=C(c1ccc(NCc2c[nH]nc2-c2ccc(C(F)(F)F)cc2)cc1)C(F)(F)F` [Example 506, 2,2,2-Trifluoro-1-(4-{[3-(4-trifluoromethyl-phenyl)-1H-pyrazol-4-ylmethyl]-amino}-phenyl)-ethanone], 1 to 10 µM.
`CCCC(=O)c1ccc(NCc2n[nH]cc2Br)cc1` [Example 522]: the EC50 lay within 1 to 10 µM.
The same measure for `CCCC(=O)c1ccc(OCc2c[nH]nc2-c2cccc(C(F)(F)F)c2)cc1` [Example 498, 1-{4-[3-(3-Trifluoromethyl-phenyl)-1H-pyrazol-4-ylmethoxy]-phenyl}-butan-1-one]: less than 1 µM.
For `CCCN1Cc2cc(OCc3c[nH]nc3-c3ccccc3)ccc2C1=O` [Example 537, 5-(3-Phenyl-1H-pyrazol-4-ylmethoxy)-2-propyl-2,3-dihydro-isoindol-1-one] the value was less than 1 µM; for `CCCC(=O)c1ccc(NCc2ccco2)cc1` [Example 13, 1-{4-[(Furan-2-ylmethyl)amino]phenyl}butan-1-one], 1 to 10 µM; for `CC(=O)c1ccc(OCc2c[nH]nc2-c2ccc(C(F)(F)F)cc2)cc1` [Example 483, 1-{4-[3-(4-Trifluoromethyl-phenyl)-1H-pyrazol-4-ylmethoxy]-phenyl}-ethanone], 1 to 10 µM.
For `CCCC(=O)c1ccc(OCc2n[nH]cc2-c2ccc(OC)cc2)cc1` [Example 520, 1-{4-[4-(4-Methoxy-phenyl)-1H-pyrazol-3-ylmethoxy]-phenyl}-butan-1-one] the value was less than 1 µM.

For the origin of these results see patent US9242933B2 (AbbVie Deutschland GmbH & Co. KG, priority 2007, dated 2016).
